Measured values as given in PubChem BioAssay AID2060326 (Molecular Pharmacology Branch, DTP, NCI, 2025).

Tested on: MDA-MB-468 multi-cell spheroids, viability
Experiment: Anticancer human tumor MDA-MB-468 cell line growth inhibition [IpAb];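 note: spheroids exposed to agents for seven days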;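 for viability, T/C: 100% = DMSO vehicle control viability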
Details: for IC50: curve of first compound; for viability, T/C: stronger effect = lower value
Method in brief: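 Spheroids of 60% malignant cells, 25% HUVEC and 15% MSC were exposed to targeted agents combined with ipatasertib or abemaciclib. Doses started at or near clinical Cmax (10 microM when unknown) and fell in half-log steps.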

[1] = second compound 0.01 µM, first compound 0.00316 µM
[2] = second compound 0.01 µM, first compound 0.01 µM
[3] = second compound 0.01 µM, first compound 0.0316 µM
[4] = second compound 0.01 µM, first compound 0.1 µM
[5] = second compound 0.0316 µM, first compound 0.00316 µM
[6] = second compound 0.0316 µM, first compound 0.01 µM
[7] = second compound 0.0316 µM, first compound 0.0316 µM
[8] = second compound 0.0316 µM, first compound 0.1 µM
[9] = second compound 0.1 µM, first compound 0.00316 µM
[10] = second compound 0.1 µM, first compound 0.01 µM
[11] = second compound 0.1 µM, first compound 0.0316 µM
[12] = second compound 0.1 µM, first compound 0.1 µM
[13] = second compound 0.316 µM, first compound 0.00316 µM
[14] = second compound 0.316 µM, first compound 0.01 µM
[15] = second compound 0.316 µM, first compound 0.0316 µM
[16] = second compound 0.316 µM, first compound 0.1 µM
[17] = second compound 1 µM, first compound 0.00316 µM
[18] = second compound 1 µM, first compound 0.01 µM
[19] = second compound 1 µM, first compound 0.0316 µM
[20] = second compound 1 µM, first compound 0.1 µM
[21] = second compound 0.01 µM, first compound 0.316 µM
[22] = second compound 0.01 µM, first compound 1 µM
[23] = second compound 0.01 µM, first compound 3.16 µM
[24] = second compound 0.01 µM, first compound 10 µM
[25] = second compound 0.0316 µM, first compound 0.316 µM
[26] = second compound 0.0316 µM, first compound 1 µM
[27] = second compound 0.0316 µM, first compound 3.16 µM
[28] = second compound 0.0316 µM, first compound 10 µM
[29] = second compound 0.1 µM, first compound 0.316 µM
[30] = second compound 0.1 µM, first compound 1 µM
[31] = second compound 0.1 µM, first compound 3.16 µM
[32] = second compound 0.1 µM, first compound 10 µM
[33] = second compound 0.316 µM, first compound 0.316 µM
[34] = second compound 0.316 µM, first compound 1 µM
[35] = second compound 0.316 µM, first compound 3.16 µM
[36] = second compound 0.316 µM, first compound 10 µM
[37] = second compound 1 µM, first compound 0.316 µM
[38] = second compound 1 µM, first compound 1 µM
[39] = second compound 1 µM, first compound 3.16 µM
[40] = second compound 1 µM, first compound 10 µM

Row | Structure (SMILES) | IC50 (second compound 0.01 µM) | IC50 (second compound 0.0316 µM) | IC50 (second compound 0.1 µM) | IC50 (second compound 0.316 µM) | IC50 (second compound 1 µM) | viability, T/C [3] | viability, T/C [4] | viability, T/C [7] | viability, T/C [8] | viability, T/C [11] | viability, T/C [12] | viability, T/C [15] | viability, T/C [16] | viability, T/C [19] | viability, T/C [20] | viability, T/C [21] | viability, T/C [22] | viability, T/C [25] | viability, T/C [26] | viability, T/C [29] | other results
1 | CC(C)n1nc(-c2ccc3oc(N)nc3c2)c2c(N)ncnc21 + CCN1CCN(Cc2ccc(Nc3ncc(F)c(-c4cc(F)c5nc(C)n(C(C)C)c5c4)n3)nc2)CC1 | 11.5 nM | 10.4 nM | 11.2 nM | 14.7 nM | 11.6 nM | 24.9% | 10.6% | 26.4% | 11.6% | 26.9% | 10.2% | 35% | 14.5% | 34% | 20% |  |  |  |  |  | viability, T/C (second compound 0.01 µM, first compound 0.000316 µM): 90.8%; viability, T/C (second compound 0.01 µM, first compound 0.001 µM): 90%; viability, T/C [1]: 69.7%; viability, T/C [2]: 57.6%; viability, T/C (second compound 0.0316 µM, first compound 0.000316 µM): 95.6%; viability, T/C (second compound 0.0316 µM, first compound 0.001 µM): 81.4%; viability, T/C [5]: 67%; viability, T/C [6]: 56%; viability, T/C (second compound 0.1 µM, first compound 0.000316 µM): 99%; viability, T/C (second compound 0.1 µM, first compound 0.001 µM): 78.3%; viability, T/C [9]: 75.8%; viability, T/C [10]: 54%; viability, T/C (second compound 0.316 µM, first compound 0.000316 µM): 91.4%; viability, T/C (second compound 0.316 µM, first compound 0.001 µM): 88.3%; viability, T/C [13]: 86%; viability, T/C [14]: 54.7%; viability, T/C (second compound 1 µM, first compound 0.000316 µM): 75.2%; viability, T/C (second compound 1 µM, first compound 0.001 µM): 81.3%; viability, T/C [17]: 64.2%; viability, T/C [18]: 53.2%
2 | CC1(C)CCC(CN2CCN(c3ccc(C(=O)NS(=O)(=O)c4ccc(NCC5CCOCC5)c([N+](=O)[O-])c4)c(Oc4cnc5[nH]ccc5c4)c3)CC2)=C(c2ccc(Cl)cc2)C1 + CCN1CCN(Cc2ccc(Nc3ncc(F)c(-c4cc(F)c5nc(C)n(C(C)C)c5c4)n3)nc2)CC1 | 3130 nM | 4240 nM | 3040 nM | 4280 nM | 2040 nM | 96.2% | 81.1% | 88.6% | 86.9% | 92.1% | 96.6% | 99.3% | 109% | 75.4% | 86.5% | 82.5% | 85% | 89.8% | 74.8% | 105% | viability, T/C [23]: 49.7%; viability, T/C [24]: 10.2%; viability, T/C [27]: 66.2%; viability, T/C [28]: 9.92%; viability, T/C [30]: 109%; viability, T/C [31]: 48.1%; viability, T/C [32]: 9.29%; viability, T/C [33]: 94.9%; viability, T/C [34]: 94.1%; viability, T/C [35]: 64.1%; viability, T/C [36]: 9.61%; viability, T/C [37]: 78.8%; viability, T/C [38]: 77.9%; viability, T/C [39]: 32.9%; viability, T/C [40]: 5.14%
3 | CCCS(=O)(=O)Nc1ccc(F)c(C(=O)c2c[nH]c3ncc(-c4ccc(Cl)cc4)cc23)c1F + CCN1CCN(Cc2ccc(Nc3ncc(F)c(-c4cc(F)c5nc(C)n(C(C)C)c5c4)n3)nc2)CC1 | > 10000 nM | > 10000 nM | > 10000 nM | > 10000 nM | 5030 nM | 89.8% | 88.3% | 104% | 91.1% | 106% | 114% | 102% | 103% | 76.9% | 78.4% | 101% | 124% | 99.1% | 113% | 104% | viability, T/C [23]: 108%; viability, T/C [24]: 88.7%; viability, T/C [27]: 79.5%; viability, T/C [28]: 57.5%; viability, T/C [30]: 117%; viability, T/C [31]: 99.5%; viability, T/C [32]: 51.4%; viability, T/C [33]: 104%; viability, T/C [34]: 98.4%; viability, T/C [35]: 111%; viability, T/C [36]: 64.1%; viability, T/C [37]: 85.7%; viability, T/C [38]: 74.2%; viability, T/C [39]: 66.5%; viability, T/C [40]: 26.2%
4 | COc1c(OCCCN2CCOCC2)ccc2c3n(c(=NC(=O)c4cnc(N)nc4)nc12)CCN3 + CCN1CCN(Cc2ccc(Nc3ncc(F)c(-c4cc(F)c5nc(C)n(C(C)C)c5c4)n3)nc2)CC1 | 145 nM | 109 nM | 91.7 nM | 111 nM | 75.4 nM | 78.6% | 66.9% | 73.5% | 54.7% | 78.4% | 50.1% | 86.8% | 50.8% | 59.7% | 49% | 20.9% | 3.88% | 21.9% | 3.58% | 16.1% | viability, T/C [1]: 101%; viability, T/C [2]: 79.4%; viability, T/C [5]: 93%; viability, T/C [6]: 85.6%; viability, T/C [9]: 109%; viability, T/C [10]: 93.8%; viability, T/C [30]: 3.39%; viability, T/C [13]: 80.6%; viability, T/C [14]: 98.7%; viability, T/C [33]: 21.2%; viability, T/C [34]: 6.79%; viability, T/C [17]: 75%; viability, T/C [18]: 73.6%; viability, T/C [37]: 21%; viability, T/C [38]: 7.2%
5 | Cc1nc(NC(=O)N2CCCC2C(N)=O)sc1-c1ccnc(C(C)(C)C(F)(F)F)c1 (stereo not given) + CCN1CCN(Cc2ccc(Nc3ncc(F)c(-c4cc(F)c5nc(C)n(C(C)C)c5c4)n3)nc2)CC1 | 7820 nM | 5280 nM | 4970 nM | 3890 nM | 1290 nM | 108% | 90.6% | 77.8% | 83.4% | 99.8% | 91.9% | 91% | 89.7% | 57.9% | 68.1% | 102% | 79.2% | 68% | 86% | 98.9% | viability, T/C [23]: 102%; viability, T/C [24]: 37.4%; viability, T/C [27]: 69%; viability, T/C [28]: 24.4%; viability, T/C [30]: 86%; viability, T/C [31]: 67.3%; viability, T/C [32]: 23.7%; viability, T/C [33]: 77.7%; viability, T/C [34]: 79.3%; viability, T/C [35]: 57.2%; viability, T/C [36]: 16.5%; viability, T/C [37]: 62.9%; viability, T/C [38]: 55.1%; viability, T/C [39]: 30.6%; viability, T/C [40]: 6.3%
